What was measured:
Assay in all cases: relative viability (nuclei count vs DMSO), 5 days (fraction); higher = more cells survive
Crenolanib + Bortezomib = compound: CC1(COc2ccc3c(c2)ncn3-c2ccc3cccc(N4CCC(N)CC4)c3n2)COC1 [Crenolanib] + CC(C)C[C@H](NC(=O)[C@H](Cc1ccccc1)NC(=O)c1cnccn1)B(O)O [Bortezomib] (partner 0.002 µM)
Method in brief: (§1)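 Cells from lung cancer lines were seeded into 1536-well plates and, one day later, dosed by pin tool. Treatments were either a single drug or a fixed dose of an anchor drug with five library-drug doses (not always all listed) in √10 steps. After 5 days, nuclei were stained in a one-step fixation (final 0.05% Triton X-100, 1% formaldehyde, 1 ug/ml Hoechst) and counted on 4× images, and relative viability is the treated-to-vehicle nuclei ratio, as the median of duplicate plates.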

Crenolanib + Linsitinib = compound: CC1(COc2ccc3c(c2)ncn3-c2ccc3cccc(N4CCC(N)CC4)c3n2)COC1 [Crenolanib] + C[C@]1(O)C[C@@H](c2nc(-c3ccc4ccc(-c5ccccc5)nc4c3)c3c(N)nccn32)C1 [Linsitinib] (partner 1 µM)
Method in brief: as §1

Tivantinib + Palbociclib = compound: O=C1NC(=O)[C@@H](c2cn3c4c(cccc24)CCC3)[C@@H]1c1c[nH]c2ccccc12 [Tivantinib] + CC(=O)c1c(C)c2cnc(Nc3ccc(N4CCNCC4)cn3)nc2n(C2CCCC2)c1=O [Palbociclib] (partner 0.5 µM)
Method in brief: as §1

Tivantinib + Dasatinib = compound: O=C1NC(=O)[C@@H](c2cn3c4c(cccc24)CCC3)[C@@H]1c1c[nH]c2ccccc12 [Tivantinib] + Cc1nc(Nc2ncc(C(=O)Nc3c(C)cccc3Cl)s2)cc(N2CCN(CCO)CC2)n1 [Dasatinib] (partner 0.075 µM)
Method in brief: as §1

| Cell Line | relative viability (Crenolanib + Bortezomib; first compound 0.01 µM) | relative viability (Crenolanib + Bortezomib; first compound 0.03162 µM) | relative viability (Crenolanib + Bortezomib; first compound 0.1 µM) | relative viability (Crenolanib + Bortezomib; first compound 0.3162 µM) | relative viability (Crenolanib + Bortezomib; first compound 1 µM) | relative viability (Crenolanib + Linsitinib; first compound 0.01 µM) | relative viability (Crenolanib + Linsitinib; first compound 0.03162 µM) | relative viability (Crenolanib + Linsitinib; first compound 0.1 µM) | relative viability (Crenolanib + Linsitinib; first compound 0.3162 µM) | relative viability (Crenolanib + Linsitinib; first compound 1 µM) | relative viability (Tivantinib + Palbociclib; first compound 0.01 µM) | relative viability (Tivantinib + Palbociclib; first compound 0.03162 µM) | relative viability (Tivantinib + Palbociclib; first compound 0.1 µM) | relative viability (Tivantinib + Palbociclib; first compound 0.3162 µM) | relative viability (Tivantinib + Dasatinib; first compound 0.01 µM) | relative viability (Tivantinib + Dasatinib; first compound 0.03162 µM) | relative viability (Tivantinib + Dasatinib; first compound 0.1 µM) | relative viability (Tivantinib + Dasatinib; first compound 0.3162 µM) |
| --- | --- | --- | --- | --- | --- | --- | --- | --- | --- | --- | --- | --- | --- | --- | --- | --- | --- | --- |
| EBC-1 | 0.798 | 0.581 | 0.573 | 0.559 | 0.462 | 0.946 | 0.832 | 0.85 | 0.978 | 0.996 |  |  |  |  |  |  |  |  |
| EKVX | 1.03 | 0.994 | 0.974 | 1.2 | 1.08 | 1.05 | 1.1 | 0.954 | 1.12 | 1.01 | 0.408 | 0.446 | 0.381 | 0.174 | 0.615 | 0.431 | 0.618 | 0.315 |
| EMC-BAC-2 | 1.19 | 1.03 | 1.01 | 1.18 | 1.01 | 0.826 | 0.874 | 0.805 | 0.821 | 0.808 | 0.518 | 0.512 | 0.503 | 0.527 | 0.35 | 0.307 | 0.183 | 0.343 |
| EPLC-272H |  | 0.766 | 0.747 | 0.887 | 0.874 |  | 1.19 | 0.982 | 1.18 | 1.06 | 0.298 | 0.323 | 0.308 | 0.273 | 0.409 | 0.343 | 0.293 | 0.176 |
| H3255 | 0.89 | 0.543 | 0.765 | 0.7 | 0.759 | 0.923 | 0.872 | 0.92 | 0.938 | 1.04 | 0.298 | 0.303 | 0.331 |  | 0.35 | 0.38 | 0.361 |  |
| HARA | 1.17 | 1.1 | 1.09 | 1.13 | 1.16 | 0.914 | 0.886 | 0.983 | 0.975 | 0.926 | 0.259 | 0.249 | 0.246 | 0.193 | 0.293 | 0.302 | 0.299 | 0.225 |
| HCC-15 | 1.15 | 1.01 | 0.909 | 1.05 | 0.956 | 0.832 | 0.919 | 0.889 | 0.926 | 0.861 | 0.724 | 0.761 | 0.638 | 0.852 | 0.609 | 0.591 | 0.587 | 0.639 |
| HCC-44 | 0.944 | 0.876 | 0.856 | 0.878 | 0.833 | 0.674 | 0.67 | 0.638 | 0.673 | 0.629 | 0.946 | 0.953 | 0.883 | 0.945 |  |  |  |  |
| HCC-78 | 0.309 | 0.454 | 0.638 | 0.499 | 0.438 | 0.654 | 0.512 | 0.496 | 0.518 | 0.506 | 0.49 | 0.445 | 0.448 | 0.426 | 0.416 | 0.376 | 0.378 | 0.377 |
| HCC-366 | 1.01 | 1.1 | 0.902 | 1.12 | 0.949 | 0.628 | 0.738 | 0.574 | 0.819 | 0.69 | 0.434 | 0.362 | 0.399 | 0.337 | 0.629 | 0.594 | 0.495 | 0.681 |

From the supplement of paper PMC10307832
